Active and inactive are the calls of the source. No cut-off for these calls is given here.
Legend:
[1] = target: Acetylcholinesterase (Electrophorus electricus) (UniProt O42275); assay: Inhibition of electric eel AChE preincubated for 15 mins at 10 uM followed by addition of acetylthiocholine iodide as substrate measured after 30 mins by Ellman's microplate assay
[2] = target: Cholinesterase (Equus caballus) (UniProt P81908); assay: Inhibition of equine serum BChE preincubated for 15 mins at 10 uM followed by addition of S-butyrylthiocholine iodide as substrate measured after 30 mins by Ellman's microplate assay
Sequence of Cholinesterase (Equus caballus) (P81908 whole entry): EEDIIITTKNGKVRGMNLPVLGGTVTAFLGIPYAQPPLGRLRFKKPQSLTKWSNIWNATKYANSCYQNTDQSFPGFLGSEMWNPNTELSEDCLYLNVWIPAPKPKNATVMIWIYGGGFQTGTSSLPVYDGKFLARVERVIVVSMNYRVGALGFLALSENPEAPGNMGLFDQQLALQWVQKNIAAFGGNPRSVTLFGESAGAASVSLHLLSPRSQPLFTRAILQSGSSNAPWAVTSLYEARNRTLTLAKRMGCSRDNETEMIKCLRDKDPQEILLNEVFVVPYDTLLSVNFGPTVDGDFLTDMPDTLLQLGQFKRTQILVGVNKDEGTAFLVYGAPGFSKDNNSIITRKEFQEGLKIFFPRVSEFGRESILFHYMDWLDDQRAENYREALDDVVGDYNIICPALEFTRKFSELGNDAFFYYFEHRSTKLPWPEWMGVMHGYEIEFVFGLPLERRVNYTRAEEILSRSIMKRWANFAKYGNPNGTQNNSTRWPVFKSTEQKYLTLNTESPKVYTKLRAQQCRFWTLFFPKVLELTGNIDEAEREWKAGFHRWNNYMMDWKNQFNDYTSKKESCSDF

Acetylcholinesterase [3] = target: T1, Acetylcholinesterase (Electrophorus electricus, UniProt O42275)
T1 sequence (O42275 whole entry): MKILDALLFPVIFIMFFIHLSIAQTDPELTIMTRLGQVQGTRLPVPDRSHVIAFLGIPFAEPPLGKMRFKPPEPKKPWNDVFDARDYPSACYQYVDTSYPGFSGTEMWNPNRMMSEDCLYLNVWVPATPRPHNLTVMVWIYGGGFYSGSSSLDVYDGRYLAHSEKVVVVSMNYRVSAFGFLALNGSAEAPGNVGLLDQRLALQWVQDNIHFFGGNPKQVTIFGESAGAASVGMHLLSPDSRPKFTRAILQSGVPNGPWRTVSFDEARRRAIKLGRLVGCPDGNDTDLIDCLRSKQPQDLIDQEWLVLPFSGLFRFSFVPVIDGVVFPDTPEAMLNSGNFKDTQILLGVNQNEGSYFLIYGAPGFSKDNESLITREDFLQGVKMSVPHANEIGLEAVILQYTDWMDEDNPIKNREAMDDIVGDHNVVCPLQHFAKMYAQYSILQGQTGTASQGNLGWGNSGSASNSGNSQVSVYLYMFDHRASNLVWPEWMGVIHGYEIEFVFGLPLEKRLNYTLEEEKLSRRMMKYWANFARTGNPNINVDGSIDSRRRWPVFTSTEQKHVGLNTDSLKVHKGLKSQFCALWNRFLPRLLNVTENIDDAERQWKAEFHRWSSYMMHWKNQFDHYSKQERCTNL
Description: Inhibition of electric eel AChE preincubated for 15 mins followed by addition of acetylthiocholine iodide as substrate measured after 30 mins by Ellman's microplate assay

Cholinesterase [4] = target: T2, Cholinesterase (Equus caballus, UniProt P81908)
T2 sequence (P81908 whole entry): as the sequence (P81908 whole entry) above
Description: Inhibition of equine serum BChE preincubated for 15 mins followed by addition of S-butyrylthiocholine iodide as substrate measured after 30 mins by Ellman's microplate assay

Acetylcholinesterase [5] = target: T1, Acetylcholinesterase; assay: Mixed type inhibition of electric eel AChE preincubated for 15 mins followed by addition of acetylthiocholine iodide as substrate measured after 30 mins by Lineweaver-Burk double reciprocal plot analysis
Cholinesterase [6] = target: T2, Cholinesterase; assay: Mixed type inhibition of equine serum BChE preincubated for 15 mins followed by addition of S-butyrylthiocholine iodide as substrate measured after 30 mins by Lineweaver-Burk double reciprocal plot analysis

Sequence of Acetylcholinesterase (Electrophorus electricus) (O42275 24-633 limits assumed): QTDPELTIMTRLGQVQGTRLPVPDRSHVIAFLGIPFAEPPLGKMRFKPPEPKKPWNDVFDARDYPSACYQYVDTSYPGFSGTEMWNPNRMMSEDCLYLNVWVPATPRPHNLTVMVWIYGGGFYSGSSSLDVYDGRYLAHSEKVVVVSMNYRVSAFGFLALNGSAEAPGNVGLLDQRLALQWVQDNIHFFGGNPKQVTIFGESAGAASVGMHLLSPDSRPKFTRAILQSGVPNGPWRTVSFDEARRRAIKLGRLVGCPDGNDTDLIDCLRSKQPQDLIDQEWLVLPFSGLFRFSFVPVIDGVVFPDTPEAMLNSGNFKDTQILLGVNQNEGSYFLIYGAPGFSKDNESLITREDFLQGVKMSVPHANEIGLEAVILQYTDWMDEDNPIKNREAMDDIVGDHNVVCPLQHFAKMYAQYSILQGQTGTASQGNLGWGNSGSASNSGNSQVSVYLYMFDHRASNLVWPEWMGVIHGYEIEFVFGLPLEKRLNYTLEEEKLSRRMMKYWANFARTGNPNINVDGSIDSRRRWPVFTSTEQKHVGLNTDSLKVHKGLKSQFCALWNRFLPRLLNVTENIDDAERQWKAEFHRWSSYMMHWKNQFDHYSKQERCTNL

Compound	inhibition [1]	inhibition [2]	IC50 (Acetylcholinesterase [3])	IC50 (Cholinesterase [4])	Ki (Acetylcholinesterase [5])	Ki (Cholinesterase [6])
O=C(C1=C(O)/C(=C/c2cccs2)CCC1)c1ccccc1	Active	inactive	5.1 µM	–	–	–
COc1cc(/C=C2\CCCC(C(=O)c3ccccc3)=C2O)cc(OC)c1OC	inactive	inactive	–	–	–	–
O=C(C1=C(O)/C(=C/c2cccc(Cl)c2)CCC1)c1ccccc1	inactive	inactive	–	–	–	–
O=C(C1=C(O)/C(=C/c2cccc(O)c2)CCC1)c1ccccc1	inactive	inactive	–	–	–	–
O=C(C1=C(O)/C(=C/c2cccc(Cc3ccccc3)c2)CCC1)c1ccccc1	Active	inactive	7.8 µM	–	–	–
Cc1cccc(/C=C2\CCCC(C(=O)c3ccccc3)=C2O)c1	Active	inactive	8.6 µM	–	–	–
O=C(C1=C(O)/C(=C/c2cccc(OCCN3CCCCC3)c2)CCC1)c1ccccc1	Active	Active	3.1 µM	1.4 µM	–	–
O=C(C1=C(O)/C(=C/c2cccc(F)c2)CCC1)c1ccccc1	Active	inactive	9.7 µM	–	–	–
O=C(C1=C(O)/C(=C/c2ccccc2Cl)CCC1)c1ccccc1	inactive	inactive	8.2 µM	–	–	–
O=C(C1=C(O)/C(=C/c2ccc(Cl)cc2)CCC1)c1ccccc1	Active	inactive	7.6 µM	–	–	–
O=C(C1=C(O)/C(=C/c2ccccc2Br)CCC1)c1ccccc1	Active	inactive	8.4 µM	–	–	–
O=C(C1=C(O)/C(=C/c2ccccc2F)CCC1)c1ccccc1	Active	inactive	6.6 µM	–	–	–
O=C(C1=C(O)/C(=C/c2ccc(Cc3ccccc3)cc2)CCC1)c1ccccc1	Active	inactive	8.4 µM	–	–	–
O=C(C1=C(O)/C(=C/c2ccc(Cl)c(Cl)c2)CCC1)c1ccccc1	Active	inactive	9.8 µM	–	–	–
COc1cccc(/C=C2\CCCC(C(=O)c3ccccc3)=C2O)c1	Active	inactive	7.4 µM	–	–	–
O=C(C1=C(O)/C(=C/c2cccc3ccccc23)CCC1)c1ccccc1	Active	inactive	7.6 µM	–	–	–
COc1ccc(/C=C2\CCCC(C(=O)c3ccccc3)=C2O)cc1OC	inactive	inactive	–	–	–	–
O=C(C1=C(O)/C(=C/c2ccc(OCCN3CCCC3)cc2)CCC1)c1ccccc1	Active	Active	2 µM	2.3 µM	–	–
O=C(C1=C(O)/C(=C/c2ccc(OCCN3CCCCC3)cc2)CCC1)c1ccccc1	Active	Active	1.6 µM	2.7 µM	1.9 µM	–
COc1cccc(/C=C2\CCCC(C(=O)c3ccccc3)=C2O)c1OC	inactive	inactive	–	–	–	–
O=C(C1=C(O)/C(=C/c2ccc(O)c(O)c2)CCC1)c1ccccc1	inactive	Active	–	6.5 µM	–	–

Compound	inhibition [1]	inhibition [2]	IC50 (Acetylcholinesterase [3])	IC50 (Cholinesterase [4])	Ki (Acetylcholinesterase [5])	Ki (Cholinesterase [6])
COc1ccccc1/C=C1\CCCC(C(=O)c2ccccc2)=C1O	inactive	inactive	–	–	–	–
COc1cc(/C=C2\CCCC(C(=O)c3ccccc3)=C2O)ccc1O	inactive	inactive	–	–	–	–
COc1ccc(/C=C2\CCCC(C(=O)c3ccccc3)=C2O)cc1	inactive	inactive	–	–	–	–
O=C(C1=C(O)/C(=C/c2ccc(Cl)cc2Cl)CCC1)c1ccccc1	Active	inactive	5.4 µM	–	–	–
O=C(C1=C(O)/C(=C/c2ccc(F)c(F)c2)CCC1)c1ccccc1	Active	inactive	8.7 µM	–	–	–
O=C(C1=C(O)/C(=C/c2ccc(O)cc2)CCC1)c1ccccc1	inactive	inactive	–	–	–	–
O=C(C1=C(O)/C(=C/c2ccc(O)c(Cl)c2)CCC1)c1ccccc1	inactive	Active	–	10.6 µM	–	–
O=C(C1=C(O)/C(=C/c2ccc3ccccc3c2)CCC1)c1ccccc1	Active	inactive	8.3 µM	–	–	–
O=C(C1=C(O)/C(=C/c2ccc(F)cc2)CCC1)c1ccccc1	Active	inactive	6.6 µM	–	–	–
COc1ccc(OC)c(/C=C2\CCCC(C(=O)c3ccccc3)=C2O)c1	inactive	inactive	–	–	–	–
O=C(C1=C(O)/C(=C/c2ccc(O)c(Br)c2)CCC1)c1ccccc1	inactive	Active	–	4.7 µM	–	–
COc1ccc(/C=C2\CCCC(C(=O)c3ccccc3)=C2O)c(OC)c1OC	inactive	inactive	–	–	–	–
O=C(C1=C(O)/C(=C/c2ccc(Br)c(Br)c2)CCC1)c1ccccc1	Active	inactive	9 µM	–	–	–
O=C(C1=C(O)/C(=C/c2ccccc2)CCC1)c1ccccc1	inactive	inactive	–	–	–	–
O=C(C1=C(O)/C(=C/c2ccc(Br)cc2)CCC1)c1ccccc1	Active	inactive	8.7 µM	–	–	–
Cc1ccc(/C=C2\CCCC(C(=O)c3ccccc3)=C2O)cc1	Active	inactive	8.5 µM	–	–	–
Cc1ccc(/C=C2\CCCC(C(=O)c3ccccc3)=C2O)s1	Active	inactive	5.9 µM	–	–	–
O=C(C1=C(O)/C(=C/c2cccc(OCCN3CCCC3)c2)CCC1)c1ccccc1	Active	Active	3.5 µM	0.6 µM	–	0.2 µM
COc1ccc(/C=C2\CCCC(C(=O)c3ccccc3)=C2O)cc1O	inactive	inactive	–	–	–	–
O=C(C1=C(O)/C(=C/c2cccc(Cl)c2Cl)CCC1)c1ccccc1	Active	inactive	5.9 µM	–	–	–
